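How tested: cells in 96-well plates exposed to compound for 48 hours at five concentrations. GI50 = concentration required for 50% inhibition of growth.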 Calls of active or inactive are those of the source. Rule as the data show it: active = GI50 up to about 1.1 µM and inactive = higher.
How the values were obtained:
Test in all cases: growth of human tumour cells (NCI), 48 h
A549 = system: A549
ACHN = system: ACHN
HL-60 = system: HL-60
HOP-62 = system: HOP-62
IGROV-1 = system: IGROV-1
KM12 = system: KM12
MDA-MB-435 = system: MDA-MB-435
Malme-3M = system: Malme-3M
NCI-H522 = system: NCI-H522
OVCAR-3 = system: OVCAR-3
OVCAR-5 = system: OVCAR-5
OVCAR-8 = system: OVCAR-8
RPMI-8226 = system: RPMI-8226
SF-268 = system: SF-268
SK-MEL-2 = system: SK-MEL-2
SK-OV-3 = system: SK-OV-3
SN12C = system: SN12C
SR = system: SR
T47D = system: T47D
A498 = system: A498

Measured: GI50

Cc1cc(C)nc(NS(=O)(=O)c2ccc(NNc3c4ccccc4nc4c(C(=O)Nc5ccc(S(N)(=O)=O)cc5)cccc34)cc2)n1
inactive: A549 > 100 µM | ACHN 28.1 µM | HL-60 34.9 µM | HOP-62 33.4 µM | IGROV-1 34.6 µM | KM12 34 µM | MDA-MB-435 47.2 µM | Malme-3M 43.3 µM | NCI-H522 19.7 µM | OVCAR-3 25.9 µM | OVCAR-5 31.1 µM | OVCAR-8 34.4 µM | RPMI-8226 23.3 µM | SF-268 29.9 µM | SK-MEL-2 12.8 µM | SK-OV-3 47.1 µM | SN12C 29.9 µM | SR 12.8 µM | T47D 4.23 µM

OCC1c2ccccc2-n2nc(-c3ccccc3)c(O)c21 (centres undefined)
inactive: A549 44.2 µM | ACHN 16.8 µM | HOP-62 41.9 µM | IGROV-1 36.2 µM | KM12 18.4 µM | MDA-MB-435 26.2 µM | Malme-3M 17.1 µM | NCI-H522 22.1 µM | OVCAR-3 26.7 µM | OVCAR-5 > 100 µM | OVCAR-8 18.5 µM | SF-268 36.9 µM | SK-MEL-2 15.9 µM | SK-OV-3 39.4 µM | SN12C 17.6 µM | T47D 22.3 µM

CC(C)(C)C(=O)O[C@H]1C=C[C@@H](O)[C@@H]2[C@H]1[C@@H]1C=C[C@H]2C1
inactive: A498 20.3 µM | A549 30 µM | ACHN 45.4 µM | HL-60 4.15 µM | IGROV-1 3.06 µM | KM12 2.63 µM | Malme-3M > 10 µM | NCI-H522 17.4 µM | OVCAR-3 19.7 µM | OVCAR-5 1.96 µM | OVCAR-8 19 µM | RPMI-8226 17.1 µM | SF-268 27.9 µM | SK-MEL-2 13 µM | SK-OV-3 25.2 µM | SN12C 16.6 µM | SR 18.9 µM | T47D 24.8 µM

COc1ccccc1N/C(SCc1ccccc1)=C(/C(Cl)=C(Cl)Cl)[N+](=O)[O-]
inactive: A498 82.8 µM | A549 30.4 µM | ACHN 32.1 µM | HOP-62 28.6 µM | KM12 34 µM | MDA-MB-435 17.3 µM | Malme-3M 17.4 µM | OVCAR-3 18.7 µM | OVCAR-5 33.3 µM | OVCAR-8 14.4 µM | RPMI-8226 26.6 µM | SF-268 18.6 µM | SK-MEL-2 29.6 µM | SK-OV-3 46.5 µM | SN12C 20.3 µM | T47D 26.1 µM

CCOP(=O)(OCC)C(C)(C)N(C)/C(F)=N/C(F)(F)F
inactive: A549 > 100 µM | ACHN > 100 µM | HL-60 > 100 µM | HOP-62 > 100 µM | IGROV-1 > 100 µM | KM12 > 100 µM | MDA-MB-435 > 100 µM | Malme-3M > 100 µM | OVCAR-3 > 100 µM | OVCAR-5 > 100 µM | OVCAR-8 > 100 µM | RPMI-8226 > 100 µM | SF-268 > 100 µM | SK-MEL-2 > 100 µM | SK-OV-3 > 100 µM | SN12C > 100 µM | SR > 100 µM | T47D > 100 µM

Clc1ccccc1/C=c1\nc(-c2ccccc2)n2c1nc1ccccc12
inactive: A498 > 100 µM | A549 > 100 µM | ACHN > 100 µM | HL-60 > 100 µM | HOP-62 20.8 µM | IGROV-1 27.2 µM | KM12 > 100 µM | MDA-MB-435 > 100 µM | Malme-3M > 100 µM | OVCAR-3 > 100 µM | OVCAR-5 > 100 µM | OVCAR-8 31.2 µM | RPMI-8226 84.3 µM | SF-268 19.8 µM | SK-MEL-2 45.3 µM | SK-OV-3 25.3 µM | SN12C > 100 µM | T47D > 100 µM

O=c1cc(-c2ccc(O)cc2)n(C2CC2)c2ccccc12
inactive: A549 4.52 µM | ACHN 2.47 µM | HL-60 19.7 µM | HOP-62 4.41 µM | IGROV-1 5.3 µM | KM12 3.45 µM | MDA-MB-435 4.83 µM | NCI-H522 3.18 µM | OVCAR-3 4.23 µM | OVCAR-5 3.64 µM | OVCAR-8 5.31 µM | RPMI-8226 3.35 µM | SF-268 7.29 µM | SK-MEL-2 2.77 µM | SK-OV-3 9.08 µM | SN12C 6.01 µM | SR 7.43 µM | T47D 3.96 µM

COc1ccc(-n2sc3ncc(-c4ccccc4)cc3c2=O)cc1
inactive: A498 > 100 µM | A549 35.9 µM | ACHN 21.6 µM | HL-60 20.5 µM | HOP-62 > 100 µM | IGROV-1 22.1 µM | KM12 50 µM | MDA-MB-435 40.6 µM | OVCAR-3 20.3 µM | OVCAR-5 26.2 µM | OVCAR-8 25.5 µM | RPMI-8226 18.2 µM | SK-MEL-2 > 100 µM | SK-OV-3 > 100 µM | SN12C 27.9 µM | T47D > 100 µM
